Assay results published in BindingDB's records for patent US20240343747 (Accro Bioscience (HK), 2024).

Columns and labels:
Assay in all cases: Competitive Binding Assay
[1] = molecular target: T1, Tyrosine-protein kinase JAK2 [808-1132] (Homo sapiens, UniProt O60674)
T1 construct: 808-1132
Description: (§1) The lysates were centrifuged and filtered to remove cell debris. The remaining kinases were produced in HEK-293 cells and subsequently tagged with DNA for qPCR detection. Streptavidin coated magnetic beads were treated with biotinylated small molecule ligands for 30 minutes at room temperature to generate affinity resins for kinase assays. The liganded beads were blocked with excess biotin and washed with blocking buffer (SeaBlock (Pierce), 1% BSA, 0.05 % Tween 20, 1 mM DTT) to remove unbound ligand and to reduce non-specific binding. […] Test compounds were prepared as 111X stocks in 100% DMSO. Dissociation constants (Kds) were determined using an 11-point 3-fold compound dilution series with three DMSO control points. All compounds for Kd measurements are distributed by acoustic transfer (non-contact dispensing) in 100% DMSO. The compounds were then diluted directly into the assays such that the final concentration of DMSO was 0.9%. All reactions performed in polypropylene 384-well plate. Each was a final volume of 0.02 ml. The assay plates were incubated at room temperature with shaking for 1 hour and the affinity beads were washed with wash buffer (1×PBS, 0.05% Tween 20). The beads were then re-suspended in elution buffer (1×PBS, 0.05% Tween 20, 0.5 μM nonbiotinylated affinity ligand) and incubated at room temperature with shaking for 30 minutes. The kinase concentration in the eluates was measured by qPCR.

[2] = molecular target: T2, Tyrosine-protein kinase JAK1 [837-1142] (Homo sapiens, UniProt P23458)
T2 construct: 837-1142
Description: as §1

[3] = molecular target: T3, Non-receptor tyrosine-protein kinase TYK2 [575-869] (Homo sapiens, UniProt P29597)
T3 construct: 575-869
Description: as §1

T2 sequence (P23458 837-1142): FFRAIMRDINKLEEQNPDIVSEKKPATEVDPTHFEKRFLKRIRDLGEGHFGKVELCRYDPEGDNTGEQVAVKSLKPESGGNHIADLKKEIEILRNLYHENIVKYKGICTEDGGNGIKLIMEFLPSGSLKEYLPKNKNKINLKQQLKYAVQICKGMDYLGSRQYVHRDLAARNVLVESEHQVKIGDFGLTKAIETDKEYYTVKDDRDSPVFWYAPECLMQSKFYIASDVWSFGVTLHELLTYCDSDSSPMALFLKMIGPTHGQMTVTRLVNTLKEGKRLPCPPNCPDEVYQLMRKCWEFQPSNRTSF
T3 sequence (P29597 575-869): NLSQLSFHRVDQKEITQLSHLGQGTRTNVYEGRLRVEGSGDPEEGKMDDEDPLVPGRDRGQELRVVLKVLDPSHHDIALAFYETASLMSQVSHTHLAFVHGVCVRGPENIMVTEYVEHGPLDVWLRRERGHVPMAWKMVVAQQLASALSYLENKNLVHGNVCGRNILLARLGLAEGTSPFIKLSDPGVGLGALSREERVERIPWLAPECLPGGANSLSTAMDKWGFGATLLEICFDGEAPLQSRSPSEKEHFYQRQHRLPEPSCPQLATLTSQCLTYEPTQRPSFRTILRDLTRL
T1 sequence (O60674 798-1132): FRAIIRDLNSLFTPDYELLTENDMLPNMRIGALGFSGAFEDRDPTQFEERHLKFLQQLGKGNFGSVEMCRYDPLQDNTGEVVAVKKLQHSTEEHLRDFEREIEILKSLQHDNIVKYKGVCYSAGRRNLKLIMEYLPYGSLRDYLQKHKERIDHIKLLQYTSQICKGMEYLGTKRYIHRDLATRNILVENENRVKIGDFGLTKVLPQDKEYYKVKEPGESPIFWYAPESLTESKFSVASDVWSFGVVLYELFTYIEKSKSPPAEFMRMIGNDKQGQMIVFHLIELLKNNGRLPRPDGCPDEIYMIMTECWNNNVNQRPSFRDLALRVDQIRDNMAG

Kd [1]: > 30 µM
Kd [2]: > 30 µM
Kd [3]: 0.014 nM
SMILES: [2H]C([2H])([2H])NC(=O)c1nnc(NC(=O)C2CC2)cc1Nc1cccc(-c2cc(P(=O)(C3CC3)C3CC3)n(C)n2)c1OC [US20240343747, Example B41]
